Patent publication EP4603105A1, “PHARMACEUTICAL COMPOSITION CONTAINING CYCLIC COMPOUND HAVING SELECTIVE KRAS INHIBITORY EFFECT AGAINST HRAS AND NRAS” (CHUGAI SEIYAKU KABUSHIKI KAISHA, priority 2022, dated 2024)
*1 amine or outer side, *2 acyl side, *3 side chain or, on linkers, in order; H or OH if unused. Where a SMILES comes first, the peptide text is derived from it. Bridges are numbered along the chain shown (N, C = ends). [ ]: non-standard residue; d: D form. The star is where a group is joined. hPhe(3-Cl-4-CF3) = N[C@@H](CCc1ccc(C(F)(F)F)c(Cl)c1)C(=O)O; NPrPhe(4-CF3) = CCCN[C@@H](Cc1ccc(C(F)(F)F)cc1)C(=O)O; X32 = Cc1ccc(C[C@@H](C(=O)[*:2])N(CC2CCCC2)[*:1])cc1; NMeGly(cPent) = CN[C@H](C(=O)O)C1CCCC1; Pro(4,4-F2) = O=C(O)[C@@H]1CC(F)(F)CN1; Hyp = O=C(O)[C@@H]1C[C@@H](O)CN1; NMeD = CN[C@@H](CC(=O)O)C(=O)O; NMeL = CN[C@@H](CC(C)C)C(=O)O; Azetidin(1-yl) = C1CN(*)C1; Morpholide = C1CN(*)CCO1; NMeA = CN[C@@H](C)C(=O)O; Ac5c = NC1(C(=O)O)CCCC1; Aze = O=C(O)[C@@H]1CCN1; Ac4c = NC1(C(=O)O)CCC1; Sar = CNCC(=O)O

Tests used:
[1] = target: GDP-bound NRAS wild-type protein (Homo sapiens, UniProt P01111); assay: Binding to NRAS by surface plasmon resonance (SPR), KD and KD ratio to KRAS
GDP-bound NRAS wild-type protein, sequence (P01111 whole entry): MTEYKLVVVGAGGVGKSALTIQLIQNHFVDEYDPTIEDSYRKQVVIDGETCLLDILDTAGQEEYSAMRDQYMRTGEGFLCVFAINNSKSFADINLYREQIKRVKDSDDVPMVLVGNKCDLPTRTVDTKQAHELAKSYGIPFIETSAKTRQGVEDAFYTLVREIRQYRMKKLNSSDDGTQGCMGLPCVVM
In short: (§1)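 GDP-loaded biotinylated Avi-tag RAS proteins (E. coli-expressed) captured on a Biotin CAPture chip at ~100–300 RU; single-cycle kinetics at 30°C, 100 µL/min, 75 s injections of rising compound concentrations. HBS pH 7.4 running buffer with 1 mM DTT, 10 mM MgCl2, 10 µM GDP, 4% DMSO. KD from 1:1 binding fit.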

[2] = target: HRAS wild-type protein (Homo sapiens, UniProt P01112); assay: Binding to HRAS by surface plasmon resonance (SPR), KD and KD ratio to KRAS
HRAS wild-type protein, sequence (P01112 whole entry): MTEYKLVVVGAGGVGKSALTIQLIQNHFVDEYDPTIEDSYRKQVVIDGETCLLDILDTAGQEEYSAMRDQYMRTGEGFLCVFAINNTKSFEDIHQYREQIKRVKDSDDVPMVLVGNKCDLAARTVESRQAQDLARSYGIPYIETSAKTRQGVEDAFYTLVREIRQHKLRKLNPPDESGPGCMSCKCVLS
In short: as §1

[3] = system: human lung cancer strain NCI-H441; type: cell-based
In short: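 Readout: […] after the ATP-based reagent. Compound: serial dilutions in dimethyl sulfoxide.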

[4] = ratio of the KD value with respect to GDP-bound NRAS wild-type protein to the KD value with respect to KRAS
[5] = ratio of the KD value with respect to HRAS wild-type protein to the KD value with respect to KRAS
[6] = ratio of KD for GDP-bound NRAS wild-type protein to KD for KRAS
[7] = ratio of KD for HRAS wild-type protein to KD for KRAS
[8] = ratio of KD value for GDP-bound NRAS wild-type protein to KD value for KRAS (SPR)
[9] = ratio of KD value for HRAS wild-type protein to KD value for KRAS (SPR)

Row | IC50 [3] | SMILES | NRAS /KRAS [1, 4] | HRAS /KRAS [2, 5] | NRAS /KRAS [1, 6] | HRAS /KRAS [2, 7] | NRAS /KRAS [1, 8] | HRAS /KRAS [2, 9]
1 | 0.0296 µM | CCO[C@@H]1C[C@H]2C(=O)NC3(CCC3)C(=O)N(C)[C@@H](C3CCCC3)C(=O)N(C)[C@H](C(=O)N(C)C)CC(=O)N(C)[C@@H](C)C(=O)N[C@@H]([C@H](C)CC)C(=O)N(C)CC(=O)N(C)[C@H]3CCCCN(C3=O)[C@@H](Cc3ccc(C(F)(F)F)cc3)C(=O)N(C)CC(=O)N[C@@H](CCc3cc(F)c(C(F)(F)F)c(F)c3)C(=O)N2C1 [PP0730] | C (A compound having a KD ratio of 0.1 or more and less than 3 is denoted as C) | C (A compound having a KD ratio of 0.1 or more and less than 3 is denoted as C) | – | – | – | –
2 | 0.0076 µM | CCCN1C(=O)[C@@H]2CCN2C(=O)CN(C)C(=O)[C@H]([C@@H](C)CC)NC(=O)[C@H](CC(C)C)N(C)C(=O)C[C@@H](C(=O)N(C)C)NC(=O)[C@H](C2CCCC2)N(C)C(=O)C2(CCC2)NC(=O)[C@@H]2C[C@@H](OCC)CN2C(=O)[C@H](CCc2ccc(C(F)(F)F)c(Cl)c2)NC(=O)CN(C)C(=O)[C@@H]1Cc1ccc(C(F)(F)F)cc1 [PP0390] ([NMeL]I[Sar][Aze][NPrPhe(4-CF3)][Sar][hPhe(3-Cl-4-CF3)][Hyp](Et)[Ac4c][NMeGly(cPent)]D-NMe2; lactam N-11) | C (A compound having a KD ratio of 0.1 or more and less than 3 is denoted as C) | B (a compound having 3 or more and less than 10 is denoted as B) | – | – | – | –
3 | 0.0072 µM | CCO[C@@H]1C[C@H]2C(=O)NC3(CCC3)C(=O)N(C)[C@@H](C3CCCC3)C(=O)N(C)[C@H](C(=O)N(C)C)CC(=O)N(C)[C@@H](CC3CCCC3)C(=O)N[C@@H]([C@@H](C)CC)C(=O)N(C)CC(=O)N(C)[C@H]3C/C=C\CCN(C3=O)[C@@H](Cc3ccc(C(F)(F)F)cc3)C(=O)N(C)CC(=O)N[C@@H](CCc3ccc(C(F)(F)F)c(Cl)c3)C(=O)N2C1 [PP2842] | – | – | A (a compound having 10 or more and less than 20 is denoted as A) | B (a compound having 3 or more and less than 10 is denoted as B) | – | –
4 | 0.0116 µM | CCCN1C(=O)[C@@H]2CCN2C(=O)CN(C)C(=O)[C@H]([C@@H](C)CC)NC(=O)[C@H](CC(C)C)N(C)C(=O)C[C@@H](C(=O)N(C)C)NC(=O)[C@H](C2CCCC2)N(C)C(=O)C2(CCC2)NC(=O)[C@@H]2CC(F)(F)CN2C(=O)[C@H](CCc2ccc(C(F)(F)F)c(Cl)c2)NC(=O)CN(C)C(=O)[C@@H]1Cc1ccc(C(F)(F)F)cc1 [PP0388] ([NMeL]I[Sar][Aze][NPrPhe(4-CF3)][Sar][hPhe(3-Cl-4-CF3)][Pro(4,4-F2)][Ac4c][NMeGly(cPent)]D-NMe2; lactam N-11) | C (A compound having a KD ratio of 0.1 or more and less than 3 is denoted as C) | B (a compound having 3 or more and less than 10 is denoted as B) | – | – | – | –
5 | 0.0076 µM | CCC[C@H]1C(=O)N[C@@H]([C@@H](C)CC)C(=O)N(C)CC(=O)N(C)[C@H]2C/C=C\CCN(C2=O)[C@@H](Cc2ccc(C)cc2)C(=O)N(C)CC(=O)N[C@@H](CCc2cc(F)c(C(F)(F)F)c(F)c2)C(=O)N2C[C@H](C)C[C@H]2C(=O)N(C)C2(CCC2)C(=O)N(C)[C@@H](C2CCCC2)C(=O)N(C)[C@H](C(=O)N(C)C)CC(=O)N1C [PP1799] | – | – | – | – | B (a compound having 3 or more and less than 10 is denoted as B) | B (a compound having 3 or more and less than 10 is denoted as B)
6 | 0.0169 µM | CC[C@H](C)[C@@H]1NC(=O)[C@H](CC2CC2)N(C)C(=O)C[C@@H](C(=O)N2CCCC2)N(C)C(=O)[C@H](C2CCCC2)N(C)C(=O)C2(CCC2)NC(=O)[C@@H]2CC(F)(F)CN2C(=O)[C@H](CCc2cc(F)c(C(F)(F)F)c(F)c2)NC(=O)CN(C)C(=O)[C@H](Cc2ccc(C(F)(F)F)cc2)N2CC/C=C\C[C@@H](C2=O)N(C)C(=O)CN(C)C1=O [PP1512] | – | – | – | – | AA (a compound having 20 or more is denoted as AA) | A (a compound having 10 or more and less than 20 is denoted as A)
7 | 0.007 µM | CC[C@H](C)[C@@H]1NC(=O)[C@H](CC)N(C)C(=O)C[C@@H](C(=O)N(C)C)N(C)C(=O)[C@H](C2CCCC2)N(C)C(=O)C2(CCCC2)N(C)C(=O)[C@@H]2CCCN2C(=O)[C@H](CCc2cc(F)c(C(F)(F)F)c(F)c2)NC(=O)CN(C)C(=O)[C@H](Cc2ccc(C(F)(F)F)cc2)N2CC/C=C\C[C@@H](C2=O)N(C)C(=O)CN(C)C1=O [PP1805] | – | – | – | – | A (a compound having 10 or more and less than 20 is denoted as A) | A (a compound having 10 or more and less than 20 is denoted as A)
8 | 0.0131 µM | CCC[C@H]1C(=O)N[C@@H]([C@@H](C)CC)C(=O)N(C)CC(=O)N(C)[C@H]2C/C=C\CCN(C2=O)[C@@H](Cc2ccc(C)cc2)C(=O)N(C)CC(=O)N[C@@H](CCc2ccc(C(F)(F)F)c(OC)c2)C(=O)N2C[C@H](OCC)C[C@H]2C(=O)NC2(CCC2)C(=O)N(C)[C@@H](C2CCCC2)C(=O)N(C)[C@H](C(=O)N(C)C)CC(=O)N1C [PP1871] | – | – | – | – | A (a compound having 10 or more and less than 20 is denoted as A) | A (a compound having 10 or more and less than 20 is denoted as A)
9 | 0.21 µM | CC[C@H](C)[C@@H]1NC(=O)[C@H](CC(C)C)N(C)C(=O)C[C@@H](C(=O)N2CCOCC2)N(C)C(=O)[C@H](C2CCCCC2)N(C)C(=O)C2(CCCC2)NC(=O)[C@@H]2CCCN2C(=O)[C@H](CCc2cc(F)c(C(F)(F)F)c(F)c2)NC(=O)CN(C)C(=O)[C@H](Cc2ccc(C(F)(F)F)cc2)N2CCCCC[C@@H](C2=O)N(C)C(=O)CN(C)C1=O [PP0505] | B (a compound having 3 or more and less than 10 is denoted as B) | B (a compound having 3 or more and less than 10 is denoted as B) | – | – | – | –
10 | 0.05 µM | CC[C@H](C)[C@@H]1NC(=O)[C@H](CC(C)C)N(C)C(=O)C[C@@H](C(=O)N2CCOCC2)N(C)C(=O)[C@H](C2CCCC2)N(C)C(=O)C2(CCCC2)NC(=O)[C@@H]2CCCN2C(=O)[C@H](CCc2ccc(C(F)(F)F)c(Cl)c2)NC(=O)CN(C)C(=O)[C@H](Cc2ccc(C)cc2)N(CC2CCCC2)C(=O)[C@@H]2CCN2C(=O)[C@H](C)N(C)C1=O [PP0084] ([NMeL]I[NMeA][Aze][X32][Sar][hPhe(3-Cl-4-CF3)]P[Ac5c][NMeGly(cPent)][NMeD]-Morpholide; lactam N-11) | – | – | C (A compound having a KD ratio of 0.1 or more and less than 3 is denoted as C) | B (a compound having 3 or more and less than 10 is denoted as B) | – | –
11 | 0.155 µM | CC[C@H](C)[C@@H]1NC(=O)[C@H](CC)N(C)C(=O)C[C@@H](C(=O)N(C)C)N(CC)C(=O)[C@H](C2CCCC2)N(C)C(=O)C2(CCC2)NC(=O)[C@@H]2CCCN2C(=O)[C@H](CCc2cc(F)c(C(F)(F)F)c(F)c2)NC(=O)CN(C)C(=O)[C@H](Cc2ccc(C(F)(F)F)cc2)N2CC/C=C\C[C@@H](C2=O)N(C)C(=O)CN(C)C1=O [PP1106] | – | – | A (a compound having 10 or more and less than 20 is denoted as A) | A (a compound having 10 or more and less than 20 is denoted as A) | – | –
12 | 0.0038 µM | CCCN1C(=O)CN(C)C(=O)CN(C)C(=O)[C@H]([C@@H](C)CC)NC(=O)[C@H](CC(C)C)N(C)C(=O)C[C@@H](C(=O)N2CCC2)N(C)C(=O)[C@H](C2CCCC2)N(C)C(=O)C2(CCCC2)NC(=O)[C@@H]2CCCN2C(=O)[C@H](CCc2ccc(C(F)(F)F)c(Cl)c2)NC(=O)CN(C)C(=O)[C@@H]1Cc1ccc(C(F)(F)F)cc1 [PP0172] ([NMeL]I[Sar][Sar][NPrPhe(4-CF3)][Sar][hPhe(3-Cl-4-CF3)]P[Ac5c][NMeGly(cPent)][NMeD]-{Azetidin(1-yl)}; lactam N-11) | – | – | B (a compound having 3 or more and less than 10 is denoted as B) | C (A compound having a KD ratio of 0.1 or more and less than 3 is denoted as C) | – | –
13 | 0.0055 µM | CCO[C@@H]1C[C@H]2C(=O)NC3(CCC3)C(=O)N(C)[C@@H](C3CCCC3)C(=O)N(C)[C@H](C(=O)N3CCOCC3)CC(=O)N(C)[C@@H](CC)C(=O)N[C@@H]([C@@H](C)CC)C(=O)N(C)CC(=O)N(C)[C@H]3CCCCN(C3=O)[C@@H](Cc3ccc(C(F)(F)F)cc3)C(=O)N(C)CC(=O)N[C@@H](CCc3cc(F)c(C(F)(F)F)c(F)c3)C(=O)N2C1 [PP0708] | B (a compound having 3 or more and less than 10 is denoted as B) | B (a compound having 3 or more and less than 10 is denoted as B) | – | – | – | –
14 | 0.216 µM | CC[C@H](C)[C@@H]1NC(=O)[C@H](CC(C)C)N(C)C(=O)C[C@@H](C(=O)N2CCOCC2)N(C)C(=O)[C@H](C2CCCC2)N(C)C(=O)C2(CCCC2)NC(=O)[C@@H]2CCCN2C(=O)[C@H](CCc2ccc(C(F)(F)F)c(Cl)c2)NC(=O)CN(C)C(=O)[C@H](Cc2ccc(OC(F)(F)F)cc2)N2CCCCC[C@@H](C2=O)N(C)C(=O)CN(C)C1=O [PP0615] | B (a compound having 3 or more and less than 10 is denoted as B) | B (a compound having 3 or more and less than 10 is denoted as B) | – | – | – | –
15 | 0.0384 µM | CC[C@H](C)[C@@H]1NC(=O)[C@@H]2CCC/C=C/c3ccc(cc3)C[C@@H](C(=O)N(C)CC(=O)N[C@@H](CCc3ccc(Cl)c(Cl)c3)C(=O)N3C[C@H](OC4CCCC4)C[C@H]3C(=O)NC3(CC(C)(C)C3)C(=O)N(C)[C@@H](C3CCCC3)C(=O)N(C)[C@H](C(=O)N3CCCC3)CC(=O)N2C)N2CC/C=C\C[C@@H](C2=O)N(C)C(=O)CN(C)C1=O [PP3054] | – | – | A (a compound having 10 or more and less than 20 is denoted as A) | A (a compound having 10 or more and less than 20 is denoted as A) | – | –
